Reference: PubChem BioAssay (NCI)
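The compound was tested at five concentrations on cells cultured in 96-well plates, with a 48-hour exposure period. GI50 marks 50% less growth. TGI marks complete inhibition of growth.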

Assays:
Assay in all cases: NCI-60 cell line screen, 48 h
[1] = test system: SNB-19 CNS
[2] = test system: SK-OV-3 ovarian
[3] = test system: HT29 colon
[4] = test system: CAKI-1 renal
[5] = test system: COLO 205 colon
[6] = test system: A549 NSCLC
[7] = test system: ACHN renal
[8] = test system: DU-145 prostate
[9] = test system: HCT-116 colon
[10] = test system: HOP-62 NSCLC

Compound | TGI [1] [µM] | TGI [2] [µM] | TGI [3] [µM] | TGI [4] [µM] | TGI [5] [µM] | TGI [6] [µM] | TGI [7] [µM] | GI50 [8] [µM] | TGI [8] [µM] | GI50 [1] [µM] | GI50 [2] [µM] | GI50 [3] [µM] | GI50 [4] [nM] | GI50 [5] [nM] | GI50 [6] [µM] | GI50 [9] [nM] | TGI [9] [µM] | GI50 [7] [nM] | TGI [10] [µM] | GI50 [10] [µM]
Nc1ccc(C(=O)N/C(=C\c2ccc3c(c2)OCO3)c2nc3ccccc3s2)cc1 | 28.7 | 36.2 | 25.8 | 29.7 | 34.9 | 31 | 27.2 |  |  |  |  |  |  |  |  |  |  |  |  | 
CCOC(=O)/C=C/c1ccc([N+](=O)[O-])o1 | > 100 | > 100 | 15.1 | 4.38 | 5.69 | > 100 | 3.8 | 3.17 | 11.1 | 29 | 22.4 | 3.71 | 2060 | 2260 | 25.3 | 1620 | 5.62 | 1750 |  | 
O=C(C#Cc1ccccc1)NC/C=C/c1ccccc1 | 79.9 | 56.6 | > 100 | > 100 | > 100 | > 100 | > 100 |  |  |  |  |  |  |  |  |  | > 100 |  | 52.5 | 
O=C(Nc1ccccc1)N1C(c2ccccc2)=N[C@@H](c2ccccc2)[C@@H]1c1ccccc1 | 97.9 |  | 31.6 | 48.7 | 28.8 | 52 | 31.4 |  |  |  |  |  |  |  |  |  | 36.3 |  | 47.9 | 
CCOC(=N)CC(=O)Nc1ccccc1CC | > 100 | > 100 | > 100 | > 100 | > 100 | > 100 | > 100 |  |  |  |  |  |  |  |  |  | > 100 |  | > 100 | 
COc1ccccc1/C=C(\NC(=O)c1ccccc1)c1nc2ccccc2[nH]1 | > 100 | > 100 | > 100 | > 100 | 80.3 | > 100 | > 100 |  |  |  |  |  |  |  |  |  | > 100 |  |  | 
Nc1ccccc1SC(/C=C/NNC1=NC(c2ccccc2)C(c2ccccc2)=NN1)c1ccccc1 (stereo not drawn) | 43.8 | 44.4 | 34.8 | 26.4 | 29 | 33.4 | 28.6 |  |  |  |  |  |  |  |  |  |  |  | 34.3 | 
CN(C)C(=S)/N=c1\ssc(=Nc2ccccc2)n1-c1ccccc1 |  | 80.5 | > 100 | 75.6 |  | > 100 | > 100 |  |  |  |  |  |  |  |  |  |  |  | 75.5 | 
CCCCS(=O)(=O)c1cc(Nc2ccc(O)c3c2C(=O)c2ccccc2C3=O)ccc1C | > 100 | > 100 | > 100 | > 100 |  | > 100 | > 100 | 5.01 | > 100 | 13.4 | > 100 | > 100 | > 100000 |  | 1.88 | > 100000 | > 100 | > 100000 | > 100 | 27.8
NCCOCCOCC(=O)O | > 100 | > 100 | > 100 | > 100 |  | > 100 | > 100 |  |  |  |  |  |  |  |  |  | > 100 |  |  | 
